Assay results published in patent publication US7951990B2, “Method and means for determining fitness in plants” (Bayer Bioscience N.V., priority 2001, dated 2011).

Experiments:
Assay type in all cases: cell-based, Brassica napus
[1] = system: cytochromal and alternative respiratory pathways
[2] = system: superoxide production by the hypocotyl explants; assay: quantification of superoxide production by hypocotyl explants (XTT reduction); conditions: 25 mg/l, incubation for 18 hours; all four hybrid lines
[3] = system: electron flow in the mitochondrial electron transport chain (TTC-reducing capacity of hypocotyl explants); assay: vigour assay (TTC-assay) with acetylsalicylic acid added to the incubation medium; conditions: for TTC-reducing capacity after treatment versus control condition / TTC-reducing capacity after treatment: 25 mg/l; for TTC-reducing capacity after treatment versus control condition: about 18 hours

SMILES | influence on the TTC reduction [1] | XTT reduction (superoxides) [2] | TTC-reducing capacity after treatment versus control condition ([3]; hybrid line 13 (lowest seed yield)) | TTC-reducing capacity after treatment versus control condition ([3]; hybrid line 41 (highest seed yield)) | TTC-reducing capacity after treatment ([3]; parental line DH7 (poor combining ability)) | TTC-reducing capacity after treatment ([3]; parental lines A and B (excellent combining ability)) | TTC-reducing capacity after treatment ([3]; parental lines DH4, DH5 and DH10 (moderate to good combining ability)) | TTC-reducing capacity ([3]; 50 mg/l, best performing hybrid lines) | TTC-reducing capacity ([3]; 50 mg/l, hybrid lines with a less pronounced heterosis) | TTC-reducing capacity ([3]; 100 mg/l, best performing hybrid lines)
O=C(NO)c1ccccc1O [SHAM, salicylhydroxamic acid] | does not seem to have a major influence |  |  |  |  |  |  |  |  | 
CC(=O)Oc1ccccc1C(=O)O [acetylsalicylic acid] |  | lower amounts of XTT were reduced | increased drastically | strongest decrease | high increase | decreased | no or only a small increase | increased | didn't show at 50 mg/l acetylsalicylic acid this increase | decrease again
